For one assay, the system named is mAb 6D6. The experiment in a line: ELISA reactivity of hybridoma supernatant, cell line 6D6. It counts as binding, BALB/c mice. The settings on record: cell line 6D6 supernatant, 50 ng/mL pesticide. The method, then:
(§1) The desired antibodies with the highest affinity were screened by icELISA with carbofuran as a competitive compound, and hybridoma cells were cloned by the limited dilution method. Then, the selected hybridoma cells were injected into mice for ascites production. Finally, the mAbs were purified by (NH4)2SO4 with saturation of 50% and further purified by an SPA column.
(§2) Microplates were coated with coating antigens. Different concentrations of the standard (50 µL) and the mAb (50 µL) were added to each well, and the plates were incubated for 20 min at 37 °C. The plates were washed with PBS (0.01 M, containing 0.05% (v/v) Triton X-100), 100 μL of goat anti-mouse IgG-HRP conjugate solution was added to each well, and the plates were incubated for 20 min at 37 °C. After the plates were washed with PBS (0.01 M, containing 0.05% Triton X-100, v/v), 100 µL of TMB single-component substrate solution was added to each well, followed by incubation at 37 °C for 10 min. Finally, the reaction was terminated, and the absorbance at 450 nm was measured by a microplate reader.
(§3) The inhibition ratio (I%) was calculated as (B0-B)/B0 × 100%. IC50 is the concentration of the carbofuran at an I% of 50%, and the limit of detection (LOD) was determined as the concentration showing 10% of inhibition.
(§4) Then, the reactivity of the supernatant of the six cell lines to 50 ng/mL carbofuran, benfuracarb and carbosulfan was assessed by ELISA, and the results are shown in Table 1. […] Because 13C8 had the highest reactivity with carbofuran, benfuracarb and carbosulfan among the six cell lines, it was injected into mice for ascites production, and the mAbs were purified by a protein A column for further experiments.
(ELISA stands for enzyme-linked immunosorbent assay.)

The next assay relates to mAb 7F9. The experiment in a line: ELISA reactivity of hybridoma supernatant, cell line 7F9. The settings on record: cell line 7F9 supernatant, 50 ng/mL pesticide. In kind it is binding, BALB/c mice. The method, then:
as §1, §2, §3, §4

Assay [1] relates to mAb with the immunogen BFNB-KLH. The settings on record: homologous coating antigen BFNB-OVA; cited from earlier work.
A further assay has as its system mAb 12H5. Description: ELISA reactivity of hybridoma supernatant, cell line 12H5. It counts as binding, BALB/c mice. The settings on record: cell line 12H5 supernatant, 50 ng/mL pesticide. The protocol: as §1, §2, §3, §4
Assay [2] has as its system mAb 13C8. Description: indirect competitive ELISA (icELISA) with mAb 13C8. It counts as binding, BALB/c mice. The protocol:
as §2
Taking the logarithm of the carbofuran concentration as the abscissa and (B/B0)% as the ordinate, the standard curves for ELISA and QD-LFIA were obtained based on the Morgan–Mercer–Flodin (MMF) model, which were fitted by CurveExpert 1.4.0 software (https://www.curveexpert.net, accessed on 15 July 2022). For the ELISA method, B and B0 are the absorbance of the sample well and blank well, respectively. For the QD-LFIA method, B and B0 are the T/C (fluorescence intensity of the test line/fluorescence intensity of the control line) of the sample and blank control, respectively.
as §3
The cross-reactivities (CRs) of benfuracarb, carbosulfan, 3-hydroxy-carbofuran, metolcarb, carbaryl, isoprocarb and aldicarb with carbofuran were assessed by ELISA and QD-LFIA. CR was calculated as CR (%) = [IC50 (carbofuran)/IC50 (analogues)] × 100%.
The microplate was coated with the coating antigens DDB-BSA (1 µg/mL), DDB-OVA (0.5 µg/mL), MDA-BSA (0.2 µg/mL) and MDA-OVA (0.1 µg/mL), and the concentration of mAb 13C8 was 0.03 µg/mL. Carbofuran standards (0, 0.05, 0.15, 0.45, 1.35 and 4.05 ng/mL) were detected to obtain a standard curve, and the IC50 was calculated. […] In the icELISA used in this study, free antigen (carbofuran) in solution competed with the coating antigen on the microplate for antibody 13C8; therefore, the IC50 value was negatively correlated with the antibody-binding ability of free antigen competing with coating antigens.
The ELISA method was developed with the antibody 13C8–antigen MDA-BSA pair. Under the optimized coating antigen concentration (0.1 μg/mL), HRP-conjugated goat anti-mouse IgG concentration (1 μg/mL), antibody concentration (0.03 μg/mL) and working buffer parameters (5 mM PBS at pH 7.4), a standard curve was obtained with the concentration of carbofuran on the abscissa and the inhibition ratio (B/B0) on the ordinate.

Assay [3] deals with mAb with the immunogen BFNH-lactoferrin. The settings on record: heterologous coating antigen BFOA-BSA; cited from earlier work.
For a further assay, the system named is mAb 18G3. The experiment in a line: ELISA reactivity of hybridoma supernatant, cell line 18G3. In kind it is binding, BALB/c mice. The settings on record: cell line 18G3 supernatant, 50 ng/mL pesticide. The protocol: as §1, §2, §3, §4
For assay [4], the system named is broad-specificity mAb with the immunogen BFNB-BSA. The settings on record: cited from earlier work.
The next assay deals with mAb 12D6. Description: ELISA reactivity of hybridoma supernatant, cell line 12D6. In kind it is binding, BALB/c mice. The settings on record: cell line 12D6 supernatant, 50 ng/mL pesticide. The protocol: as §1, §2, §3, §4
Assay [5] relates to mAb 13C8. The experiment in a line: colloidal gold-based LFIA with mAb 13C8. It counts as binding, BALB/c mice. The method, then: Ten milliliters of colloidal gold solution was adjusted to pH 8.0 with K2CO3 (0.1 M) at room temperature, and then 60 μg of the antibody was added. After mixing for 30 min at room temperature, 200 μL of 20% (w/v) BSA was added to block the free colloidal gold for 20 min at room temperature. Then, the mixture was centrifuged at 15,777× g for 30 min at 4 °C. Finally, the precipitate was resuspended in 2000 μL of PBS (0.005 M at pH 8.2, containing 10% BSA, 2% glucose, 0.5% alanine, 5% PEG2000 and 0.1% NaN3, w/v) and stored at 4 °C.
An immunochromatographic test strip consisted of a sample pad, a conjugate pad, a nitrocellulose (NC) membrane and an absorbent pad. The mAb–colloidal gold conjugates (700 μL) were sprayed onto the conjugate pad (6 mm × 300 mm) and then dried under vacuum for 20 h at room temperature. DDB-OVA (50 μg/mL) or MDA-OVA (30 μg/mL) and goat anti-mouse IgG antibodies were dispensed on the NC membrane at a rate of 1 μL/cm as the test line (T line) and control line (C line), respectively. The NC membrane was then dried at 37 °C for 3 h. The sample pads, conjugate pads, NC membranes and absorbent pads were attached to the PVC plastic support, and then the assembled plate was cut to obtain 4 mm test strips and placed in a rigid plastic cassette.
We also dispensed DDB-OVA (50 μg/mL) and MDA-OVA (30 μg/mL) onto the NC membrane and labeled antibody 13C8 with colloidal gold to prepare colloidal gold LFIA test strips.

Values after ≈ are worked out from the molar mass of the structure shown.

Take `CNC(=O)Oc1cccc2c1OC(C)(C)C2` [carbofuran]: the “Reactivity of mAb (I%)” value with mAb 6D6 stood at 86%; in the assay on mAb 7F9, 76%; in the assay with mAb 12H5 it was 78%; with mAb 18G3, 86%; in the assay with mAb 12D6, 84%. Besides, the “IC50 (ic-ELISA)” value is on record as 0.3 ng/mL (≈ 1.36 nM) in assay [1] and 8.97 ng/mL (≈ 40.5 nM) in [4]. The “CR (%) (ELISA)” value in the assay with mAb 13C8 [2] (CR = IC50(carbofuran)/IC50(analogue) x 100%, optimized ELISA with mAb 13C8) came to 100.0%. Besides, the “IC50 (ELISA)” value in the assay on mAb 13C8 [2] (antibody 13C8, coating antigen DDB-BSA (1 µg/mL)) was 0.19 ± 0.01 ng/mL (≈ 0.859 nM); in the assay on mAb 13C8 [2] (antibody 13C8, coating antigen DDB-OVA (0.5 µg/mL)), 0.22 ± 0.02 ng/mL (≈ 0.994 nM); in the assay on mAb 13C8 [2] (antibody 13C8, coating antigen MDA-BSA (0.2 µg/mL)), 0.20 ± 0.02 ng/mL (≈ 0.904 nM); in the assay on mAb 13C8 [2] (antibody 13C8, coating antigen MDA-OVA (0.1 µg/mL)), 0.17 ± 0.01 ng/mL (≈ 0.768 nM); with mAb 13C8 [2] (optimized ELISA, mAb 13C8 0.03 μg/mL, coating antigen 0.1 μg/mL, given as MDA-BSA and MDA-OVA, unit from text), 0.18 ± 0.03 ng/mL (≈ 0.814 nM); in [3] it was 1.4 ng/mL (≈ 6.33 nM). For the same compound, the “detection limit (ELISA)” value with mAb 13C8 [2] (concentration showing 10% of inhibition, optimized ELISA) turned out to be 0.02 ng/mL. Also, the “working range (ELISA)” value with mAb 13C8 [2] (optimized ELISA) fell in the range of 0.02 to 2.09 ng/mL. Besides, the “CR(%) (ic-ELISA)” value in assay [4] is 100.0%. Also, the “cut-off (colloidal gold LFIA)” value in the assay with mAb 13C8 [5] (heterologous coating antigen MDA-OVA (30 μg/mL)) is reported as 3 ng/mL. Also, the “change of T line versus 0 ng/mL” value is “significantly lighter” with mAb 13C8 [5] (heterologous coating antigen MDA-OVA, 1 ng/mL carbofuran) and “almost no change” in the assay with mAb 13C8 [5] (homologous coating antigen DDB-OVA, 1000 ng/mL carbofuran).
